From patent US20230406853A1, “COVALENT CDK2-BINDING COMPOUNDS FOR THERAPEUTIC PURPOSES” (Umbra Therapeutics, Inc., priority 2021, published 2023) come the findings set out here.

This experiment has as its target CycE1-CDK2 (Homo sapiens, UniProt P24941). Description: Cdk2 Enzymatic TR-FRET Assay. To be noted: CDK2/CycE 5 nM, ATP 100 μM, 60 minutes pre-incubation with compound; read-out: CDK2 Kinase. The format is biochemical. From the text:
A TR-FRET system was used to detect CycE1-CDK2 kinase activity. The assay used a Europium-labeled anti-phospho-Ser/Thr antibody and ULight™-labeled peptide substrate (eIF4E-binding protein 1). When CycE1-CDK2 phosphorylates the peptide the phosphorylated Thr is recognized by the Europium-labeled anti-phospho-Ser/Thr antibody. Upon excitation of the Europium donor fluorophore at 337 nm, energy is transferred to the ULight™ acceptor dye on the substrate, resulting in the emission of light at 665 nm. The fluorescent signal is proportional to the level of ULight™ peptide phosphorylation and to the kinase activity.
The stock solution was prepared as follows: • 1× Reaction buffer: 50 mM HEPES pH 7.5, 10 mM MgCl2, 0.5 mM TCEP, 0.01% Tween®20, 1 mM EGTA, 0.001% fatty acid free (faf)-BSA; • 1× Detection buffer: equilibrate the Detection buffer at RT for at least 20 minutes then dilute 10-fold the stock in water; • 4×ENZYME mix: CDK2/CycE enzyme (5 nM final concentration in kinase reaction) in 1× Reaction buffer; • 4×SUBSTRATE mix: 4E-BP substrate (50 nM final concentration in kinase reaction)+ATP (100 μM final concentration in kinase reaction) in 1× Reaction buffer • 2×STOP/DETECTION mix: EDTA (10 mM final concentration in assay)+Anti-Phosphate antibody (0.5 nM final concentration in assay) in 1× Detection buffer • Neutral Control: Assay with no inhibition (MAX activity) • Inhibitor Control: Assay with IC100 (1 mM) reference inhibitor JNJ7706621 (MIN activity)
The assay was assembled directly in a white, small volume, Proxiplate (PerkinElmer) as follows: • Step 1: Charge compounds=5 μL/well • Step 2: Charge kinase=2.5 μL/well→total volume 7.5 μL/well • The plate is sealed and incubated at room temperature for 60 minutes • Step 3: Substrate mix (substrate/ATP)=2.5 μL/well→total enzymatic reaction volume 10 μL/well • The plate is sealed and incubated at room temperature for 60 minutes • Step 4: Stop/Detection mix (EDTA/antibody)=10 μL/well→total volume 20 μL/well • The plate is sealed and incubated at room temperature for at least 2 hours and fluorescence signal is measured at PHERAstar FSX The reading conditions are the followings for PHERAstar FSX:
A 384-microtiter plate (MTP), containing 20 test compounds in eight-points dose response, is prepared. Test compounds dose response curves are prepared in automation in 100% DMSO in a CyBio Felix, starting from a DMSO stock solution of 10 mM. To obtain the eight-points dose-response curve, a serial dilution protocol in 100% DMSO is performed for each compound by using a 96 MTP as a support. 20 μL of the 10 mM stock solutions are transferred in row A of a 96 MTP U-bottom from column 2 to 11 for a total of 10 compounds/plate. Starting from the 10 mM stock, serial dilutions across rows, from A to B and proceeding up to H, are performed for each compound by transferring 6.3 μL of the more concentrated fluid in 13.7 μL of 100% DMSO.
In order to generate duplicate data points each well of the 96 MTP is then replicated into two wells of a 384 MTP plate for each compound and for each concentration to be tested. The 384 MTP compound plate is used as source plate in a “mother to child” process with a CyBi®-Well dispenser in which 1 μL of compound is moved into a destination plate pre-filled with 24 μL of reaction buffer, obtaining 2× concentrated compound solution.
Genedata Screener® 17.0 was used for data analysis. In the implemented workflow, the following calculations were conducted: • Calculate the Response Value (KRV) from the respective original data as follow:
HTRF Assay: Ratio=665 nm_FRET/620 nm_Ab*10000 • Calculate the % Inhibition of the compound (Inhibitory effect). KRV was normalized versus Neutral Controls and Inhibitor Controls (JNJ7706621) to obtain Activity % according to the following formula:
Activity %=−100*(x−<Neutral Control>)/(<Inhibitor Control>−<Neutral Control>) […]
(In general: Time-resolved FRET reads energy transfer from a long-lived donor to a nearby acceptor.)

Regarding `CNc1ncc2ccc(=O)n(CC(=O)Nc3ccc(S(=O)(=O)n4cnc(-c5ccccc5)n4)cc3)c2n1` [Compound 249], the IC50 is greater than 200 µM. The same measure for `Cc1cc(S(=O)(=O)n2cncn2)ccc1NC(=O)Cn1c(=O)ccc2cnc(NC3CCN(S(C)(=O)=O)CC3)nc21` [Compound 250]: less than 10 µM. The same measure for `Cc1cc(S(=O)(=O)n2cnc(C3CC3)n2)ccc1NC(=O)Cn1c(=O)ccc2cnc(NC3CCN(S(C)(=O)=O)CC3)nc21` [Compound 251]: less than 10 µM; for `Cc1cc(S(=O)(=O)n2cnc(-c3ccccc3)n2)ccc1NC(=O)Cn1c(=O)ccc2cnc(NC3CCN(S(C)(=O)=O)CC3)nc21` [Compound 252]: less than 10 µM; for `Cc1ncn(S(=O)(=O)c2ccc(NC(=O)Cn3c(=O)ccc4cnc(NC5CCN(S(C)(=O)=O)CC5)nc43)cc2)n1` [Compound 253]: less than 10 µM.

Regarding `CC(C(=O)Nc1ccc(S(=O)(=O)n2cnc(C3CC3)n2)cc1)n1c(=O)ccc2cnc(NC3CCN(S(C)(=O)=O)CC3)nc21` (stereo not drawn) [Compound 254], the IC50 was less than 10 µM. The same measure for `CC(C)c1ncn(S(=O)(=O)c2ccc(NC(=O)Cn3c(=O)ccc4cnc(NC5CCN(S(C)(=O)=O)CC5)nc43)cc2)n1` [Compound 255]: less than 10 µM.

For the compound `CCOCc1cc2cnc(NC3CCN(S(C)(=O)=O)CC3)nc2n(CCCS(=O)(=O)n2cnc(-c3ccccc3)n2)c1=O` [Compound 256], the IC50 is greater than 200 µM. For `O=c1ccc2cnc(NC3CCOCC3)nc2n1CCCS(=O)(=O)n1cnc(C2CC2)n1` [Compound 257] the value was less than 10 µM.

As to `CS(=O)(=O)N1CCC(Nc2ncc3ccc(=O)n(CC(=O)Nc4ccc(S(=O)(=O)n5cnc(C6CCC6)n5)cc4)c3n2)CC1` [Compound 258], the IC50 is greater than 200 µM. For `CS(=O)(=O)N1CCC(Nc2ncc3ccc(=O)n(CC(=O)Nc4ccc(S(=O)(=O)n5cnc(CO)n5)cc4)c3n2)CC1` [Compound 259] the value was less than 10 µM; for `CCOC(=O)Cc1ncn(S(=O)(=O)c2ccc(NC(=O)Cn3c(=O)ccc4cnc(NC5CCN(S(C)(=O)=O)CC5)nc43)cc2)n1` [Compound 260], less than 10 µM; for `CCOCc1cc2cnc(NC3CCN(S(C)(=O)=O)CC3)nc2n(CCCS(=O)(=O)n2cnc(C3CC3)n2)c1=O` [Compound 261], 10 to 100 µM.

For `CC(C)(C)c1ncn(S(=O)(=O)c2ccc(NC(=O)Cn3c(=O)ccc4cnc(NC5CCN(S(C)(=O)=O)CC5)nc43)cc2)n1` [Compound 262], the IC50 is greater than 200 µM.

For the compound `O=c1ccc2cnc(NC3CC(F)(F)C3)nc2n1CCCS(=O)(=O)n1cnc(C2CC2)n1` [Compound 263], the IC50 was less than 10 µM. For `CS(=O)(=O)N1CCC(Nc2ncc3ccc(=O)n(CCS(=O)(=O)n4cnc(C5CC5)n4)c3n2)CC1` [Compound 264] the value was less than 10 µM; for `CCOCc1cc2cnc(NC3CCN(S(C)(=O)=O)CC3)nc2n(CCCS(=O)(=O)n2cncn2)c1=O` [Compound 265], 10 to 100 µM; for `O=c1ccc2cnc(NCC3CC3)nc2n1CCCS(=O)(=O)n1cnc(C2CC2)n1` [Compound 266], 10 to 100 µM. The same measure for `O=c1ccc2cnc(NC3CCOC3)nc2n1CCCS(=O)(=O)n1cnc(C2CC2)n1` (stereo not drawn) [Compound 267]: 10 to 100 µM. For the compound `O=c1ccc2cnc(NCC3CCCCC3)nc2n1CCCS(=O)(=O)n1cnc(C2CC2)n1` [Compound 268], the IC50 was greater than 200 µM. The same measure for `CC(C)CNc1ncc2ccc(=O)n(CCCS(=O)(=O)n3cnc(C4CC4)n3)c2n1` [Compound 269]: less than 10 µM; for `O=c1ccc2cnc(NC3CCCCCC3)nc2n1CCCS(=O)(=O)n1cnc(C2CC2)n1` [Compound 270]: less than 10 µM.

Take `O=c1ccc2cnc(NC3CC3)nc2n1CCCS(=O)(=O)n1cnc(C2CC2)n1` [Compound 271]: the IC50 was less than 10 µM. On to `CC(=O)Nc1ncn(S(=O)(=O)c2ccc(NC(=O)Cn3c(=O)ccc4cnc(NC5CCN(S(C)(=O)=O)CC5)nc43)cc2)n1` [Compound 272], for which the IC50 was less than 10 µM. The same measure for `CS(=O)(=O)N1CCC(Nc2ncc3ccc(=O)n(CC(=O)Nc4ccc(S(=O)(=O)n5cnc(C6CCCC6)n5)cc4)c3n2)CC1` [Compound 273]: greater than 200 µM. For `CS(=O)(=O)N1CCC(Nc2ncc3ccc(=O)n(CCS(=O)(=O)n4cnc(-c5ccccc5)n4)c3n2)CC1` [Compound 274], the IC50 is less than 10 µM. The same measure for `O=C(Cn1c(=O)ccc2cnc(NC3CCOC3)nc21)Nc1ccc(S(=O)(=O)n2cnc(C3CC3)n2)cc1` (stereo not drawn) [Compound 275]: less than 10 µM.

For `CS(=O)(=O)N1CCC(Nc2ncc3cc(CCO)c(=O)n(CCCS(=O)(=O)n4cnc(C5CC5)n4)c3n2)CC1` [Compound 276], the IC50 was less than 10 µM.

Turning to `CC(C)N1CCC(Nc2ncc3ccc(=O)n(CCCS(=O)(=O)n4cnc(C5CC5)n4)c3n2)CC1` [Compound 277], the IC50 was greater than 200 µM. The same measure for `O=C(Cn1c(=O)ccc2cnc(NCC3CC3)nc21)Nc1ccc(S(=O)(=O)n2cnc(C3CC3)n2)cc1` [Compound 278]: greater than 200 µM. The same measure for `O=C(Cn1c(=O)ccc2cnc(NC3CCOCC3)nc21)Nc1ccc(S(=O)(=O)n2cnc(C3CC3)n2)cc1` [Compound 279]: less than 10 µM; for `CN1CCC(Nc2ncc3ccc(=O)n(CC(=O)Nc4ccc(S(=O)(=O)n5cnc(C6CC6)n5)cc4)c3n2)CC1` [Compound 280]: greater than 200 µM; for `O=C(Cn1c(=O)ccc2cnc(NC3CC(F)(F)C3)nc21)Nc1ccc(S(=O)(=O)n2cnc(C3CC3)n2)cc1` [Compound 281]: less than 10 µM. Regarding `O=C(Cn1c(=O)ccc2cnc(NCC3CCCCC3)nc21)Nc1ccc(S(=O)(=O)n2cnc(C3CC3)n2)cc1` [Compound 282], the IC50 is greater than 200 µM. For `O=C(Cn1c(=O)ccc2cnc(NC3CC3)nc21)Nc1ccc(S(=O)(=O)n2cnc(C3CC3)n2)cc1` [Compound 283] the value was less than 10 µM; for `CS(=O)(=O)N1CCC(Nc2ncc3cc(CCO)c(=O)n(CCCS(=O)(=O)n4cnc(-c5ccccc5)n4)c3n2)CC1` [Compound 284], less than 10 µM. The same measure for `CS(=O)(=O)N1CCC(Nc2ncc3cc(Cl)c(=O)n(CCCS(=O)(=O)n4cncn4)c3n2)CC1` [Compound 285]: less than 10 µM; for `CS(=O)(=O)N1CCC(Nc2ncc3cc(Cl)c(=O)n(CCCS(=O)(=O)n4cnc(C5CC5)n4)c3n2)CC1` [Compound 286]: less than 10 µM; for `CS(=O)(=O)N1CCC(Nc2ncc3cc(Cl)c(=O)n(CCCS(=O)(=O)n4cnc(-c5ccccc5)n4)c3n2)CC1` [Compound 287]: less than 10 µM. For `COCCc1cc2cnc(NC3CCN(S(C)(=O)=O)CC3)nc2n(CCCS(=O)(=O)n2cnc(C3CC3)n2)c1=O` [Compound 288] the value was less than 10 µM; for `Cc1cc2cnc(NC3CCN(S(C)(=O)=O)CC3)nc2n(CCCS(=O)(=O)n2cnc(C3CC3)n2)c1=O` [Compound 289], less than 10 µM. With `CS(=O)(=O)N1CCC(Nc2ncc3cc(CO)c(=O)n(CCCS(=O)(=O)n4cnc(-c5ccccc5)n4)c3n2)CC1` [Compound 290], the IC50 was less than 10 µM. The same measure for `CS(=O)(=O)N1CCC(Nc2ncc3ccc(=O)n(CCS(=O)(=O)n4cncn4)c3n2)CC1` [Compound 291]: less than 10 µM; for `CC(C)CNc1ncc2ccc(=O)n(CC(=O)Nc3ccc(S(=O)(=O)n4cnc(C5CC5)n4)cc3)c2n1` [Compound 292]: greater than 200 µM. For `CC(C(=O)Nc1ccc(S(=O)(=O)n2cnc(-c3ccccc3)n2)cc1)n1c(=O)ccc2cnc(NC3CCN(S(C)(=O)=O)CC3)nc21` (stereo not drawn) [Compound 293], the IC50 is less than 10 µM.
